“Also recorded” adds a separate entry of the source.
Tests used:
[1] = tested on: serum phosphate, urinary fractional excretion of phosphate; assay: Example 3 trial: serum and urinary phosphate; type: in vivo, human; details: for mean urinary FEPi over time compared with baseline: by day 7 through day 35; for course of serum phosphate after day 1: through day 35
Method: Study visits were on Days 0 (when iron was infused), 1 (24 hours after iron infusion), 7, 14, and 35. The primary objectives were to determine the effect of iron deficiency on cFGF23 and iFGF23 levels and the effect of intravenous iron on iFGF23 and cFGF23 levels.
Randomization occurred centrally via a fax-based system. […] The complete dose was infused over 15 minutes on day 0. […] An initial test dose of 25 mg was administered slowly over 5 minutes.
Laboratory testing of blood and three-hour urine collections was performed at the screening visit and on study days 0 (when iron was infused), 1 (24 hours after iron infusion), 7, 14, and 35 (see e.g., FIG. 2A). Any subject who experienced a reduction in serum phosphate below the normal range after day 0 underwent additional phosphate measurements at 14 day intervals following day 35 until the level returned to the normal reference range. Safety evaluations of all subjects included ascertainment of adverse events, physical examinations at all study visits, and laboratory assessments. Any subject who withdrew from the study received a follow-up phone call to ascertain adverse events 30 days after they received study drug.
The pre-specified primary endpoints were changes in blood and urine markers of phosphate and bone metabolism among the evaluable population, defined as those subjects with baseline and at least one post-randomization set of FGF23 and blood and urinary phosphate levels. Secondary endpoints included the proportion of subjects achieving a hemoglobin increase […] anytime between baseline and day 35, and the change from baseline to highest hemoglobin, ferritin, and TSAT anytime during the 35-day study period. Additional safety endpoints included incidence, severity, and seriousness of adverse events, and incidence of treatment-emergent abnormal clinical laboratory values in the safety population, defined as all subjects who received the study drug regardless of subsequent laboratory testing.
Blood and urine samples were sent to a central laboratory for analysis (Covance Central Laboratory Service, Indianapolis, Ind.). Hemoglobin, blood counts, iron indices, electrolytes, and serum and urinary phosphate and creatinine were measured with standard, automated, multi-analyte techniques. Urinary fractional excretion of phosphate (FEPi) was calculated from the three-hour, morning urine collections as urinary phosphate x serum creatinine/serum phosphate x urinary creatinine. Serum levels of 25-hydroxyvitamin D and 1,25-dihydroxyvitamin D were measured in duplicate by radioimmunoassay (DiaSorin, Stillwater, Minn.) with intra-assay coefficients of variation (CV)<11.6%. Plasma C-terminal FGF23 (cFGF23) was measured in duplicate in EDTA-plasma samples using a human FGF23 immunometric assay capable of detecting both the intact peptide and its C-terminal fragments (Immutopics, San Clemente, Ca) with intra-assay CV≦3.8%. Because cFGF23 testing was performed in parallel with rolling enrollment and follow-up, all cFGF23 assay plates tested combinations of baseline and post-intervention samples from multiple study participants. Serum intact FGF23 (iFGF23) was measured in batches of baseline and post-intervention samples from multiple study participants at study end using an immunometric assay that detects the intact peptide exclusively (Kyowa Medex Company, Shizuoka, Japan) with intra-assay CV<2.7%. Serum hepcidin levels were measured on days 0, 7, and 35 using an enzyme-linked immunosorbent assay (Intrinsic LifeSciences, La Jolla, Calif.) with intra-assay CV≦19%. Urinary amino acids, glucose, albumin, and beta 2 microglobulin were measured to test for the possibility of global proximal tubular dysfunction. Urinary deoxypyridinoline cross link, and serum osteocalcin and bone-specific alkaline phosphatase were measured to assess bone turnover.
Baseline characteristics are presented as mean±standard error for continuous variables and as proportions for categorical variables. […]

dextran antibodies = assay: Dextran antigenicity test
Source text: FCM can mimic physiologically occurring ferritin. FCM is metabolized by the glycolytic pathway.

serum phosphate = assay: VIT-30: serum phosphate; type: in vivo, human
Source text: FIG. 1 is a line and scatter plot showing mean changes in phosphate (left vertical axis) or changes in FGF-23 (right vertical axis) with respect to baseline value at each study day (0, 7, 14, 28, or 56) as indicated on the Horizontal (X) axis for trial VIT30. […] Further details regarding methodology are provided in Example 2.
Study visits were on Days 0, 3, 7, 10, 14, 28, 56, and 120. A phone assessment occurred on Day 90.
Clinical laboratory variables were presented in 2 ways. First, change from baseline to Day 7, Day 14, Day 28, and Day 56 were summarized. Baseline was defined as the last value obtained prior to the first injection of study drug. Second, the number and proportion of subjects with treatment-emergent PCS laboratory values were tabulated. Treatment-emergent PCS values were those in which the baseline value was normal and post-baseline value was abnormal (i.e., met Grade 3 or Grade 4 toxicity criteria from the National Cancer Institute Common Toxicity Criteria for Adverse Events, Version 3.0 [NCI CTCAE]).
For serum phosphate and platelet count, change from baseline to the smallest value after baseline and final value were also summarized. For subjects whose baseline value was above the lower reference range and who had at least 1 value below the lower reference range after baseline, the following were summarized: the number of days from baseline to the first value below the lower reference range and the number of days from the first value below the lower reference range until the first succeeding value within the reference range.

Substance: iron dextran [reference compound]
- mean urinary FEPi over time compared with baseline [1]: no significant change over time
- mean urinary fractional excretion of phosphate (FEPi) on day 1 ([1]; in vivo): trended downwards
- serum phosphate within 24 hours after iron administration ([1]; in vivo): increased modestly
- course of serum phosphate after day 1 [1]: returned to near baseline levels by day 7 and remained stable for the remainder of the study

Substance: polynuclear iron (III)-hydroxide 4(R)-(poly-(1→4)-O-α-glucopyranosyl)-oxy-2(R),3(S),5(R),6-tetrahydroxy-hexanoate [FCM]
- specific responses in a dextran antigenicity test (dextran antibodies): no specific responses
- day of nadir in serum phosphate ([1]; FCM subjects stratified by serum phosphate<2.0 mg/dL): 14 days
- mean urinary FEPi over time compared with baseline [1]: increased significantly compared with baseline
- decrease in serum phosphate by day 7 ([1]; evaluable population): 0.6 mg/dL
- decrease in serum phosphate by day 14 ([1]; evaluable population): 0.7 mg/dL
- mean urinary fractional excretion of phosphate (FEPi) on day 1 ([1]; in vivo): trended downwards
- serum phosphate within 24 hours after iron administration ([1]; in vivo): increased modestly
- subjects in whom serum phosphate decreased to <2.0 mg/dL ([1]; in vivo): 10 subjects
- FEPi in FCM low phosphate subgroup vs the remaining ([1]; stratified analysis, peaked by day 14): increased to a significantly greater extent in the low phosphate subgroup
- course of serum phosphate after day 1 [1]: returning towards normal by day 35; also recorded: transient and asymptomatic reductions
- mean changes in phosphate with respect to baseline (FIG. 1) (serum phosphate; Days 7, 14, 28, 56, trial VIT30): decreased with respect to baseline values
- incidence of serum phosphate<2.0 mg/dL (serum phosphate; chronic kidney disease trial of 2500 patients, 120 days of follow-up (see Example 2)): 18.5%
- proportion of subjects with PCS low phosphorus (serum phosphate; treatment-emergent potentially clinically significant value): 18.5%
